In patent US11655254B2, “Substituted piperazines as BTK inhibitors” (HUTCHISON MEDIPHARMA LIMITED, priority 2020, dated 2023) one finds IC50 and minimum effective dose data, which are given here for one compound.

In assay [1] the test system is B cell activation in rat whole blood. Kind of assay: Determination of B cell activity in whole blood of rats (anti-rat IgD induced). The assay is classed as cell-based. The conditions noted are these: anti-rat immunoglobulin D, 18 hours, flow cytometry B220/CD86, read-out: IC50 value, inhibiting B cell activation in rat whole blood. Here is the method: In the determination of the compound activity, the collected peripheral whole blood of rat was added to a 96 well plate at 80 μL/well and cultured in a 5% CO2, 37° C. cell incubator. […]
On the second day, the 96-well plates were taken out and the flow cytometry antibody mixture (the final concentration of anti-rat B220PE antibody was 1 μg/mL and the final concentration of anti-rat CD86 FITC antibody was 1 μg/mL) diluted with PBS was added to each well of plate, which were incubated for 30 minutes in the dark, and then 50 […] of blood from each well was pipetted to the freshly prepared 500 μL of lysis buffer to lyse red blood cells. The plates were shaken for 20 minutes, centrifuged to remove the supernatant, then washed, fixed, and detected on a flow cytometer.
The B cell activation in the sample was determined by flow dyeing method. […]
The inhibition ratio is calculated as follows: inhibition ratio (%)=100%−{(treating well for the test compound−negative control treating well)/(control treating well for anti-rat immunoglobulin D−negative control treating well)}×100%, wherein, […]
Background: Flow cytometry measures light scatter and fluorescence of single cells or particles in a stream.

In assay [2] the test system is ITP mice (anti-mouse CD41 antibodies). Kind of assay: Idiopathic thrombocytopenic purpura induced by anti-CD41 antibody in mice. The assay is classed as in vivo. The conditions noted are these: 8 hours after modeling, single oral dose. How it is done: Male C57BL/6 mice were purchased from Shanghai Lingchang Biotechnology Co., Ltd. (certificate number 20180003011079, initial body weight of 18-20 grams), and were randomly grouped according to Table 4, with 8 mice in each group. […] When modeling, each mouse was intraperitoneally injected with 200 μL of PBS solution containing 2 μg of anti-mouse CD41 antibodies (BD, Cat #: 553487, Lot #: 7026765).
Eight hours and twenty-four hours after modeling, the whole blood was collected and placed in a centrifuge tube coated with 10% citrate-phosphate-dextrose-adenine (CPDA), and the level of platelets (PLT) in the whole blood was measured by an XT-2000i (SYSMEX) automatic blood analyzer (Shanghai Laboratory Animal Research Centre Sino-British SIPPR/B & K Lab Animal Ltd).
The average level of platelets in peripheral blood was analyzed with Graphpad statistical software by one way ANOVA followed by Fisher LSD multiple comparison test, and the p value was calculated, wherein *p<0.05 indicated a statistically significant difference compared with the vehicle control group, **p<0.01 indicated a statistically extremely significant difference compared with the vehicle control group, and ##p<0.01 indicated a statistically extremely significant difference compared with the normal group. […]

For the compound `C[C@H]1CN(C2COC2)C[C@H](C)N1c1ccc(Nc2cc(-c3ccnc(-n4ccn5c6c(cc5c4=O)CC(C)(C)C6)c3CO)cn(C)c2=O)nc1` [Compound 1, 2-(5-((5-((2S,6S)-2,6-dimethyl-4-(oxetan-3-yl)piperazin-1-yl)pyridin-2-yl)amino)-3′-(hydroxymethyl)-1-methyl-6-oxo-1,6-dihydro-[3,4′-bipyridin]-2′-yl)-7,7-dimethyl-7,8-dihydro-2H-cyclopenta[4,5]pyrrolo[1,2-a]pyrazin-1(6H)-one], the half-maximal inhibitory concentration (IC50) (as a rule, the concentration at which inhibition is half-maximal) in assay [1] was 1 nM. Further, in assay [2], the minimum effective dose amounted to 0.04 mg/kg.
